Article PMC7136483 (Frontiers in Pharmacology, 2020)
Values joined by “and” are separate entries in the source; they are usually repeats but may differ in a detail not shown here. Identical values can stand only once.

How the values were obtained:
[1] = molecular target: T1, CYP2D6 (Homo sapiens, UniProt P10635); assay: NLME PK model covariate: SSRI (paroxetine/fluoxetine) comedication (CYP2D6 inhibitors); format: in vivo; conditions: during strong CYP2D6-inhibitor comedication
T1 construct: endogenous in cells; host or cells: breast cancer patients (in vivo, clinical PK data)
T1 sequence (P10635 whole entry): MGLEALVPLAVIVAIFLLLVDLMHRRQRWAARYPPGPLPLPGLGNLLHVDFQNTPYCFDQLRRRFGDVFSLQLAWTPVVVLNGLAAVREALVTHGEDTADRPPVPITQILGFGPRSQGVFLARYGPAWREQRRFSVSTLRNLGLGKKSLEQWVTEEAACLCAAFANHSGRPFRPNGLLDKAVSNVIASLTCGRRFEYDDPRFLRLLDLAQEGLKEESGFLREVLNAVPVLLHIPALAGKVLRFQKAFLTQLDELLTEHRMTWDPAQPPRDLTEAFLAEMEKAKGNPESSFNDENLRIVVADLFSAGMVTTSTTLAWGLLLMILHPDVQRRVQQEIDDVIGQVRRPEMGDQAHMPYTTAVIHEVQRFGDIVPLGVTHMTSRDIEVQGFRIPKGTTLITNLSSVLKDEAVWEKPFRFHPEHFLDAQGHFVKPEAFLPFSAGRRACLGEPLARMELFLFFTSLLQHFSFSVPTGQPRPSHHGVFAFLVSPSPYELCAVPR
Protocol: (§1) Secondly, a covariate model refinement step was performed, selecting the most appropriate covariate functions for the preselected covariates, with respect to numerical and statistical evaluation criteria. Finally, the refined full covariate model was evaluated based on physiological plausibility of the estimated effect, statistical significance and clinical relevance criteria using advanced model evaluation techniques (Supplementary Material 1, see section “Advanced Model Evaluation Diagnostics”). To explore and quantify the reduction of unexplained variability upon introduction of covariate effects, the statistical model with the four levels of variability was exploited.

[2] = set-up: method as in earlier work; conditions: ref Johnson et al., 2004, Kisanga et al., Lim et al., 2005, Mürdter et al., 2011, Gjerde et al., 2012; cited from earlier work
[3] = Joint parent-metabolite NLME PK model of tamoxifen and endoxifen (structural, statistical and age covariate estimates); format: in vivo, human
From the text: PK parameters for tamoxifen and endoxifen were simultaneously estimated.
The statistical model aimed to incorporate four levels of variability around the structural model. Thus, and due to the nature of the database, a nested hierarchy of random-effects components was set up comprising interstudy (ISV), interindividual (IIV), interoccasion (IOV), and residual unexplained variability (RUV) (see Supplementary Figure S1). While ISV and IIV characterize random deviations between different studies and patients, respectively, IOV describes the random variability within an individual patient across different occasions. The RUV captures the remaining variability across all observations.
IIV was evaluated on all structural PK parameters and implemented using exponential IIV models (Equation 1). Resulting individual PK parameters were assumed to arise from a log-normal distribution in which the ηik values are normally distributed with mean zero and variance estimate ωk2 .
While 27% of the patients had samples collected on one occasion (study day, i.e., one dosing interval = 1 day) only, 73% of patients in the PK database had samples collected on three to four occasions (i.e., 3–4 days) with rich sampling during one occasion (dosing interval) in studies 3–6.
For the RUV, a log-transformed both sides approach was applied (Equation 3).
Since tamoxifen and endoxifen PK were analyzed simultaneously, separate but correlated RUV terms were estimated.
A study effect was introduced as additional variability term on top of the random individual effect (IIV) (study hierarchically above individual level, see Supplementary Figure S1 and Equation 4) ([Laporte-Simitsidis et al., 2000]),
The covariate model was developed using a full covariate model approach ([Tunblad et al., 2008]; [Ravva et al., 2009]; [Gastonguay, 2011]): first, covariates were pre-selected based on specific criteria and introduced simultaneously into a full covariate model (for details see Supplementary Material 1, see section “Covariate Submodel Development”). Secondly, a covariate model refinement step was performed, selecting the most appropriate covariate functions for the preselected covariates, with respect to numerical and statistical evaluation criteria. Finally, the refined full covariate model was evaluated based on physiological plausibility of the estimated effect, statistical significance and clinical relevance criteria using advanced model evaluation techniques (Supplementary Material 1, see section “Advanced Model Evaluation Diagnostics”). To explore and quantify the reduction of unexplained variability upon introduction of covariate effects, the statistical model with the four levels of variability was exploited.
Furthermore, endoxifen PK parameter values (CL30/F = 5.1 L/h and VENDX/F = 400 L) were informed and used from a clinical study administering endoxifen only ([Ahmad et al., 2010b]).

[4] = set-up: method as in Ahmad et al., 2010b; conditions: fixed in model, ref Ahmad et al., 2010b, cited from earlier work
[5] = cited from earlier work
[6] = tested on: CYP2D6; assay: NLME PK model covariate: CYP2D6 activity score on endoxifen formation; format: in vivo, human
From the text: To derive a patient’s CYP2D6 phenotype, the available genotype information, i.e., detected genetic polymorphisms (single nucleotide polymorphisms, SNPs, and copy number variants, CNVs), was translated via three steps: (1) From the reported nucleotide variation (wild-type ‘wt’ or altered nucleotide sequence ‘mut’) to a biallelic genotype, e.g., wt/mut: ^∗1/^∗41; (2) from the genotype to the activity score (AS), e.g., ^∗1/^∗41 → 1.5; (3) From the AS to the ‘traditional’ CYP2D6 phenotype category, e.g., 1.5 → normal metabolizer, gNM. […] Thus, each patient in the PK database was assigned a CYP2D6 activity score (seven AS categories from 0 to 3 in intervals of 0.5) and a respective CYP2D6 phenotype [four categories: poor (gPM, AS: 0), intermediate (gIM, AS: 0.5), normal (gNM, AS:1-2), and ultrarapid (gUM, […]) metabolizer; see Figure 1]. The prefix ‘g’ indicates the phenotype prediction from genotype.
as §1
CYP2D6 activity score The CYP2D6 AS is a multichotomous covariate with seven ordered categories from 0 to 3 (step size of 0.5). For each patient in the PK database, an AS was derived from the reported CYP2D6 genotype.
The AS was introduced as ordered categorical covariate applying a fractional change model with four categories representing the ‘traditional’ CYP2D6 phenotype classes investigating two different grouping types for the intermediate (IM) and normal (NM) metaboliser group (depending on whether AS=1 is classified as IM or NM, see Figure 1 in main text), or with six AS categories only grouping AS 2.5 and 3 (Equation 8). To model the CYP2D6 activity scores, fiveseparate categorical covariate effects (for AS subgroups: 0, 0.5, 1, 1.5 and 2.5-3) were estimated while AS=2 was set as reference category (i.e. for a typical patient with AS=2: CL23/F = θRef). An indicator variable XAS,i was coded as 1 for a patient belonging into the respective AS category or 0 otherwise.

[7] = Clinical PK database of six pooled tamoxifen studies: observed minimum steady-state concentrations
[8] = interindividual variability, final model
[9] = interoccasion variability, final model
[10] = fractional change of endoxifen formation vs AS 2
[11] = 20 mg dose group, across all studies, steady-state

SMILES: CC/C(=C(\c1ccc(O)cc1)c1ccc(OCCNC)cc1)c1ccccc1 [endoxifen, 4-hydroxy-N-desmethyl-tamoxifen]
- change in endoxifen formation [1]: −65%
- potency relative to parent tamoxifen [2]: 100 fold
- IIV CL23/F [3, 8]: 47.2 % CV
- IIV CL23/F, variance estimate [3, 8]: 0.201
- IOV CL23/F, variance estimate [3, 9]: 0.0289
- IOV CL23/F ([3]; interoccasion variability, final model (SSRI effect included)): 17.1 % CV
- CL23/F (Ref.) ([3]; relative formation of endoxifen, reference patient: CYP2D6 AS 2, 65 years, no rifampicin or SSRI): 0.493 L/h
- IIV CL23/F before covariate inclusion ([3]; without CYP2D6 AS and SSRI covariates): 63.3 % CV
- IOV CL23/F before considering SSRI effect ([3]; without covariate): 26.4 % CV
- CL30/F ([4]; relative clearance of endoxifen): 5.1 L/h and 5.10 fixed L/h
- VENDX/F ([4]; relative volume of distribution of endoxifen): 400 L and 400 fixed L
- hazard ratio of the endoxifen exposure-response relationship ([5]; ref Madlensky et al. (2011)): 0.71
- reduced risk of breast cancer recurrence related to endoxifen threshold concentration ([5]; ref Madlensky et al., 2011, Saladores et al., 2015): 26%
- breast cancer patients not reaching proposed target endoxifen concentrations ([5]; tamoxifen standard dosing, ref Madlensky et al., 2011): ~20%
- fractional decrease from CL23/F reference value ([6]; AS 1): 32.3%
- fractional decrease from CL23/F reference value ([6]; AS 1.5): 21.1%
- CL23/F_AS: 0 [6, 10]: −0.722
- CL23/F_AS: 0.5 [6, 10]: −0.510
- CL23/F_AS: 1 [6, 10]: −0.323
- CL23/F_AS: 1.5 [6, 10]: −0.211
- CL23/F_AS: 2.5-3 [6, 10]: 0.533
- reduced endoxifen formation efficiency CL23/F ([6]; intermediate metabolizers (AS: 0.5) vs AS 2): 51.0%
- reduced endoxifen formation efficiency CL23/F ([6]; poor metabolizers (AS: 0) vs AS 2): 72.2%
- increased CL23/F ([6]; ultrarapid metabolizer (AS ≥ 2.5) vs AS 2): 53.3%
- %CVgeom of Css,min [7, 11]: 84.4%
- median Css,min [7, 11]: 10.7 ng/mL
- range of Css,min [7, 11]: 0.70 to 45.5 ng/mL
- overall risk of subtarget endoxifen concentrations, observed ([7]; observed population of PK database, CSS,min below 5.97 ng/mL): 28.9%

SMILES: CC/C(=C(\c1ccccc1)c1ccc(OCCN(C)C)cc1)c1ccccc1 [tamoxifen, reference compound]
- ka ([3]; absorption rate constant, oral tamoxifen): 1.78 h⁻¹
- IIV CL20/F, variance estimate [3, 8]: 0.148
- IOV CL20/F, variance estimate [3, 9]: 0.0222
- total ISV before covariate introduction ([3]; interstudy variability): 31.2 % CV
- total ISV upon covariate introduction ([3]; interstudy variability): 16.1 % CV
- tlag ([3]; lag time): 0.389 h
- VTAM/F ([3]; relative central volume of distribution, reference patient): 1120 L
- CL20/F (Ref.) ([3]; relative clearance of tamoxifen, reference patient: CYP2D6 AS 2, 65 years, no rifampicin or SSRI): 5.77 L/h
- IOV CL20/F before implementing rifampicin effect ([3]; without covariate): 24.9 % CV
- range of Css,min [7, 11]: 3.05 to 448 ng/mL
